pKd: −log10 of the molar value. Like-named read-outs stand apart in the source and are kept apart here. Bridge positions count the residues as written; N and C are the ends. Ends that are not written are not given here. I, II: the chains in the order shown.
How the values were obtained:
human α-thrombin = molecular target: T1, human α-thrombin (Homo sapiens, UniProt P00734); assay: ELISA-type assay on wells coated with thrombin; format: binding; conditions: read-out: Dissociation constant estimated
T1 construct: concentrations of human α-thrombin ranging from 0 to 100 nM
Description: Binding to thrombin was evaluated in an ELISA-type assay. Wells of a 96 well plate were coated with 100 μL of 30 μg/mL human α-thrombin and incubated at 4 C overnight. The plate was washed twice with DDI H2O and passivated with 3% BSA in IX PBS buffer for 1 hour. The plate was shaken out and 50 μL of varying concentrations of analyte (DNA tile synbody, DNA tile with each aptamer with the other not present, and each aptamer alone, respectively) were incubated at RT for 1 hour. DNA tiles were biotin-modified at the 5′ end of one of the distal DNA strands 346 (see FIG. 26(a)). The plate was rinsed 10 times in IXPBS and 50 μL of 1:1000 dilution of streptavidin-HRP in 0.1% BSA in IX PBS was pipetted and incubated for 1 hour at RT. The plate was again rinsed and 50 μL of TMB was added and incubated at RT for 15 minutes. 50 μL of 0.5M HCl was added and the plate was read immediately. Results are shown in FIG. 27 for the DNA tile synbody 350; the DNA tile with Apt1 (SEQ ID NO: 20) but not Apt2 (SEQ ID NO: 21) present 352; the DNA tile with Apt2 but not Apt1 (SEQ ID NO: 20) present 356; Apt1 (SEQ ID NO: 20) alone 354; and Apt2 (SEQ ID NO: 21) alone 358. Dissociation constant values estimated from this assay were about 1 nM for the DNA tile synbody, about 10 nM for Apt1 (SEQ ID NO: 20) alone, and more than 1 μM for Apt2 (SEQ ID NO: 21) alone.

transferrin [1] = molecular target: T2, transferrin (Homo sapiens, UniProt P02787); assay: SPR analysis of 1:1 polypeptide pairs for binding to distinct sites on immobilized target; conditions: SPR response of pair mixture versus single polypeptides
Excerpt: The transferrin target was immobilized on a Biacore T100 SPR chip, and candidate polypeptides were applied in 1:1 mixtures in pairs and response data obtained, in accordance with the methods described in Example 4 above.

transferrin [2] = molecular target: T2, transferrin; assay: SPR steady-state solution phase KD of candidate affinity elements, transferrin immobilized on Biacore T100 chip; format: binding
Description: Transferrin was immobilized by amine-coupling to the carboxyl-functionalized surface of a Biacore T100 CMS Dextran SPR chip as illustrated in FIG. 11. A 1:1 mixture of EDC (0.4M 1-ethyl-3-(3-dimethylaminopropyl)-carbodiimide in water) and NHS (0.1M N-hydroxysuccinimide in water) was applied 300 at a flow rate of 5 to 10 μl/min for a contact time of about 6 to 10 minutes to activate the surface by conjugating […] 306 to the surface-exposed carboxyl groups. Transferrin 25 μg/ml in immobilization buffer selected for correct pH was then applied 302 at a flow rate of 5 to 10 μl/min for a contact time of about 5 to 10 minutes, allowing the amine functionality on the transferrin 308 to displace the activated NHS ester and bond to the surface via an amide bond. Finally, ethylene diamine (1 M ethylene diamine-HCl at pH 8.5) was applied at a flow rate of 5 to 10 μl/min for a contact time of about 6 to 7 minutes to deactivate any remaining reactive groups on the dextran chip surface. Flow rates and contact times are adjusted as necessary to provide the surface concentration of target desired for the intended application, and may vary by target. In general, for evaluating whether binding occurs, it is preferable to immobilize a relatively large quantity of target, and higher flow rates and/or longer contact times may be used. For determining kinetics, it is preferable to limit the amount of target immobilized so as to minimize rebinding and avidity effects, and lower flow rates and/or contact times may be used.
Candidate affinity elements for the transferrin synbody TRF 19 (SEQ ID NO: 1), TRF21 (SEQ ID NO: 3), TRF23 (SEQ ID NO: 5), TRF24 (SEQ ID NO: 6), TRF25 (SEQ ID NO: 7), and TRF26 (SEQ ID NO: 8) were individually evaluated for solution phase KD with respect to transferrin by SPR analysis. Because the off rates for these polypeptides were very high, KD values were estimated by measuring steady-state response for at least five concentrations in a two-fold dilution series, each concentration tested in duplicate. For each experiment, response data were processed using a reference surface to correct for bulk refractive index changes and any nonspecific binding. Data were also double referenced using responses from blank running buffer injections. Each experiment was conducted at 25° C. using PBST (0.01M Phosphate Buffered Saline, 0.138M NaCl, 0.0027M KCl, 0.05% surfactant Tween20, pH 7.4) as the running buffer on a Biacore T100 instrument. Analytes were injected for 60 s at a flow rate of 30 μl/min. The antigen surfaces were regenerated with 30 s consecutive pulses of NaOH/NaCl (50 mM NaOH in IM NaCl) and Glycine (10 mM glycine —HCl, pH 2.5).

[3] = test system: 8,000 human proteins (GST fusion); assay: Invitrogen Protoarray Human Protein Microarray (8,000 features), fluorescence intensity of bound ligand; format: binding
Description: Two biotinylated anti-TRF synbodies (SYN23-26 and SYN 21-22) were applied to a protein microarray having 8,000 features (Invitrogen Protoarray Human Protein Microarray v. 4.0 for immune response biomarker profiling), each feature comprising a distinct human protein (GST fusion) adsorbed to a nitrocellulose coated slide. Application of the synbodies to the microarray was performed in accordance with manufacturer instructions: (see ProtoArray Human Protein Microarray, Invitrogen, Catalog no. PAH052401, Version B, 15 Dec. 2006, 25-0970, Users Manual.) After blocking the array with 1% BSA/PBS/0.1% Tween for 1 hour at 4 C with gentle shaking, 120 μl of probing buffer (1×PBS, 5 mM mgCl2, 0.5 mM DTT, 0.05% Triton X-100, 5% glycerol, 1% BSA) with synbody was applied to the array. The prescribed cover slip was placed over the array and adjusted to remove air bubbles. The array was incubated in a 50 ml conical tube, printed side up, for 1.5 hours at 4 C without shaking The array was then removed from the conical tube inserted diagonally into the array chamber, kept on ice. 8 ml probing buffer was added to the chamber wall. The cover slip was removed and the array was incubated in probing buffer for 1 minute on ice. […] The array was dried in the dark for 60 minutes at room temperature, after which it was scanned using a fluorescent microarray scanner and data was taken and analyzed.

[4] = restates Table 3, read-out: solution phase affinities for transferrin, range of KD
[5] = estimated from steady-state SPR response, 25° C., PBST pH 7.4, read-out: Solution Phase KD

T2 sequence (P02787 20-698, species assumed): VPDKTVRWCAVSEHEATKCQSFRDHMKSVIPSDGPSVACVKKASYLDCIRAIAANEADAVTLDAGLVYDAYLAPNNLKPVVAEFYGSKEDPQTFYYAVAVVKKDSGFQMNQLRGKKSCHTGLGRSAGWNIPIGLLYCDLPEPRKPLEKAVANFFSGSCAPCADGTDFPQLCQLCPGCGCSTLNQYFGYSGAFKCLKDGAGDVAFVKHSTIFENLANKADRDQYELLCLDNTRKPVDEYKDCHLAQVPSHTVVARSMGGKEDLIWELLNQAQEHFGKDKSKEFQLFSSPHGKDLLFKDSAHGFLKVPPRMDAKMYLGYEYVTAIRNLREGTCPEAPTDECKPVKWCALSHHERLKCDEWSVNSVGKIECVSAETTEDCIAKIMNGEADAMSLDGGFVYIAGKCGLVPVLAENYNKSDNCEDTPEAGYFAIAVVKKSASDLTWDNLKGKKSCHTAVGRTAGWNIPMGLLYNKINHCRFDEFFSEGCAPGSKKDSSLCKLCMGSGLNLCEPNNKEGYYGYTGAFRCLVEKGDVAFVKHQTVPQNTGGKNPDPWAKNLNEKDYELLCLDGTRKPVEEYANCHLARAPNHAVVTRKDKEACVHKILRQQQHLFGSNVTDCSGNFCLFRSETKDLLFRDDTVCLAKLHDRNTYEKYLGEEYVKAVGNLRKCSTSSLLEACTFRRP

5′-AGTCCGTGGTAGGGCAGGTTGGGGTGACT-3′ [Apt1]
pKd (human α-thrombin): ~8.00

5′-GGTTGGTGTGGTTGG-3′ [Apt2]
pKd (human α-thrombin): < 6.00

AHKVVPQRQIRHAYNRYGSC [TRF26]
binding to distinct sites on target (transferrin [1]): bind distinct sites on transferrin
pKd (transferrin [2]; [4]): 4.00 to 4.30

APYAPQQIHYWSTLGFKGSC [TRF25]
pKd (transferrin [2]; [5]): ~4.22

FRGWAHIFFGPHVIYRGGSC [TRF23]
binding to distinct sites on target (transferrin [1]): bind distinct sites on transferrin
pKd (transferrin [2]; [5]): ~4.30
pKd (transferrin [2]; [4]): 4.00 to 4.30

I: H-FRGWAHIFFGPHVIYRGGSGKC / II: H-AHKVVPQRQIRHAYNRYGSG (amide I:21-II:C) [SYN23-26]
highest affinity target from library of 8,000 [3]: PCCA
targets bound with intensities higher than that of 1C10 for TRF [3]: seven targets

QYHHFMNLKRQGRAQAYGSC [TRF21]
pKd (transferrin [2]; [5]): ~4.22

From patent publication US9863938B2, “Synthetic antibodies” (ARIZONA BOARD OF REGENTS, A BODY CORPORATE OF THE STATE OF …, priority 2006, dated 2018)
